Like-named read-outs stand apart in the source and are kept apart here.
Key:
[1] = tested on: P. falciparum; test: Rate of killing (parasite viability) assay; format: cell-based, Plasmodium falciparum; conditions: profile compared with chloroquine, pyrimethamine, atovaquone; 48 h treatment
Description: To identify whether selection success could be predicted by compound speed of action, and to gain a greater insight into the potential mechanisms of action, assays were performed to test the killing rate (Supplementary Data 1)[33]. To quantify the killing rate, viability time-course profiles for each compound were compared with antimalarials known to have fast (chloroquine), moderate (pyrimethamine) or slow (atovaquone) rate of action. These rates were then compared with other compound characteristics, including cross-resistance profile, selection success, potency and structural characteristics to identify any possible trends. […] One compound's rate of killing, MMV666080, was unidentifiable due to compound availability. No correlation was seen between compound structure and speed of action. Additionally, there was no correlation found between killing rate and compound potency against 3D7, nor between potency and selection success (Supplementary Fig. 2).
Rate of killing was determined for each compound following a previously described methodology, which uses the invasion of fresh erythrocytes as surrogate of parasite viability. Briefly, parasites were treated with compounds for 48 h. Compound was washed out and fresh-labelled erythrocytes added to the treated parasites. Double stained erythrocytes (RBC label plus parasite DNA label) were quantified and per cent of survival determined.

[2] = tested on: 3D7; test: Cross-resistance EC50 assay, 3D7 parent / sensitive strain; format: cell-based; conditions: Plasmodium falciparum
Text: Multidrug resistance alleles, including mutations in P. falciparum chloroquine resistance transporter (pfcrt) and P. falciparum multi-drug resistance transporter 1 (pfmdr1) are very common in field isolates. Therefore, we sought to assess the degree to which pre-existing resistance alleles would contribute to a loss of potency for this diverse collection of small molecule compounds. Fifteen clones derived from three main parent lines were chosen to maximize diversity in mutated pathways and genetic backgrounds, thus representing the variety of resistance seen in the field: 3D7 (ref. [23]), W2 (ref. [24]) or Dd2 (ref. [25]). The 3D7 line originates from the clone of a Netherlands clinical isolate strain[23][26] and is generally considered to be drug sensitive, though it does convey resistance to sulfadoxine. Conversely, W2 (ref. [24], [27]) and Dd2 (ref. [25]) are multi-drug-resistant lines originating from the Indochina III/CDC isolate, which contain point mutations in pfcrt as well as amplifications in pfmdr1 and GTP cyclohydrolase.
To evaluate potential overlapping activity against known antimalarial drug targets, we performed dose-response studies with each compound against our assembled set of drug-resistant lines and their corresponding parents, in an asexual blood stage proliferation assay (Table 1). Comparisons were made to the drug-sensitive strain 3D7 when a parent was unavailable (TM90C2A, W2 and Dd2). As laboratories conducted EC50 assays with different strains and protocols, all comparisons were made between assays from the same laboratory and under the same assay conditions. Compounds displaying >5-fold EC50 shifts relative to the parent or sensitive strain were flagged as having potentially non-novel targets. Average fold shifts per strain ranged from 0.82 to 2.34, with a median of 1.23 indicating there was not common resistance to any one resistant clone. No resistance patterns were observed when classifying the compounds based on chemical structure, but this was not surprising given the diversity of compounds chosen. On the other hand, given that these confirmed compounds were derived from larger unconfirmed hit lists to which some filtration criteria may have been applied (for example, elimination of obvious dihydrofolate reductase inhibitors[32]), some[10][11][12][13] pre-existing bias may exist in the set.
The 48-h assay was carried out in a 96-well format following standard methods using the ^3H-hypoxanthine incorporation assay. The raw EC50 values corresponding to this assay can be found in Supplementary Data 3. Briefly, this assay relies on the parasite incorporation of labelled hypoxanthine that is proportional to P. falciparum growth. A culture of parasitized RBCs (0.5% parasitemia with a percentage of ring stage higher than 70% of total parasitemia, 2.0% haematocrit) in RPMI-1640, […] and 5 μM hypoxanthine was exposed to drug serial dilutions. Plates were incubated for 24 h at 37 °C, 5% CO2, 5% O2 and 90% N2. After 24 h of incubation, ^3H-hypoxanthine was added and plates were incubated for an additional 24-h period. After that, parasites were harvested on a glass fibre filter using a TOMTEC Cell Harvester 96. Filters were dried and melt-on scintillator sheets were used to determine the incorporation of ^3H-hypoxanthine. Radioactivity was measured using a microbeta counter. Data were normalized using the incorporation of the positive (parasitized RBCs without drug) and negative (same culture with artesunate at 2 μM) controls. All assays were conducted in triplicate using three independently grown cultures, and EC50 values were determined using the XLfit add-in module for Excel (version 2.3.1) from Grafit (version 5.3.1.3), where parameter h is the assay hill slope, x is the compound concentration and y is the inhibition of growth effect. The XLfit equation is: […]
Alternatively, a SYBR Green-based proliferation approach was used for the 72-h assay, as previously described. […]

[3] = SYBR green 72 hour assay, asynchronized parasites, 96-well or 1536-well format, 3D7 parent, read-out: 3D7 (PARENT) EC50 (µM) Average EC50
[4] = SYBR green 72 hour assay, synchronized parasites, 384-well format, strain 3D7 (parent), read-out: 3D7 (PARENT) Average EC50
[5] = hypoxanthine 48-hour assay, synchronized parasites, 96-well format, strain 3D7 (parent), read-out: 3D7 (PARENT) Average EC50
[6] = hypoxanthine 48-hour assay, synchronized parasites, 96-well format, strain 3D7-C9-WT (parent of PfATP4 Mut3), read-out: 3D7-C9-WT (PARENT) Average EC50
[7] = SYBR green 72 hour assay, synchronized parasites, 384-well format, 3D7 parent, read-out: 3D7 (PARENT) Average EC50

Q: Which results are given for `CNCc1ccc2nc(-c3coc(Cc4cc(Cl)ccc4OCC(C)C)n3)[nH]c2c1.Cl.Cl` [MMV026596]?
A: Killing Rate [1]: PYR (moderate); EC50 [2, 3]: 0.304 µM; EC50 [2, 4]: 0.321 µM; EC50 [2, 5]: 0.377 µM; EC50 [2, 6]: 0.472 µM

Q: Which results are given for `COc1cc(-c2nc(-c3ccccc3)c(-c3ccccc3)[nH]2)ccc1OCCN(C)C` [MMV027496]?
A: Killing Rate [1]: PYR/CQ (moderate); EC50 [2, 3]: 0.241 µM; EC50 [2, 4]: 0.118 µM; EC50 [2, 5]: 0.112 µM; EC50 [2, 6]: 0.084 µM

Q: `Cc1nc2ccc3ccc(CNc4ccc(C(=O)CC(CCC(=O)O)C(=O)O)cc4)cc3c2c(=O)[nH]1.Cl` (stereo not drawn) [MMV027634] was tested. Which “Killing Rate” value [1] did it give?
A: ATQ (slow)

Q: What about the EC50 [2, 3] of the same compound?
A: 0.148 µM

Q: What about the EC50 [2, 4] of the same compound?
A: 0.029 µM

Q: What about the EC50 [2, 5] of the same compound?
A: 0.025 µM

Q: And the EC50 [2, 6]?
A: 0.042 µM

Q: `CC(C)c1cccc(C(NC(=O)C2Cc3ccccc3CN2C(=O)c2cccc(N3CCOCC3)c2)C2CCCC2)c1` (stereo not drawn) [MMV028038] was tested. Which “Killing Rate” value [1] did it give?
A: ATQ (slow)

Q: What about the EC50 [2, 3] of the same compound?
A: 1.09 µM

Q: And the EC50 [2, 4]?
A: 0.822 µM

Q: And the EC50 [2, 5]?
A: 0.577 µM

Q: And the EC50 [2, 6]?
A: 0.833 µM

Q: How did the “Killing Rate” value [1] turn out when `CN(C)CCCN(C)C(=O)C1Cc2cc(-c3ccccc3)ccc2N1S(=O)(=O)c1ccccc1` (stereo not drawn) [MMV028895] was run?
A: ATQ (slow)

Q: What about the EC50 [2, 3] of the same compound?
A: 0.625 µM

Q: And the EC50 [2, 4]?
A: 0.049 µM

Q: And the EC50 [2, 5]?
A: 0.081 µM

Q: What about the EC50 [2, 6] of the same compound?
A: 0.052 µM

Q: Which “Killing Rate” value [1] does the source give for `O=C(NCC(CCCN1CCC(c2c[nH]c3ccccc23)CC1)c1ccccc1)Nc1ccc(Cl)c(Cl)c1` (stereo not drawn) [MMV029272] here?
A: PYR (moderate)

Q: And the EC50 [2, 3]?
A: 2.87 µM

Q: And the EC50 [2, 4]?
A: 0.17 µM

Q: And the EC50 [2, 5]?
A: 0.139 µM

Q: What about the EC50 [2, 6] of the same compound?
A: 0.115 µM

Q: For `CC(C)(C)OC(=O)N1CCN(c2ccccc2NC(=O)c2cccc(C(F)(F)F)c2Oc2ccc(F)cc2)CC1` [MMV030666], which “Killing Rate” value [1] is on record?
A: PYR (moderate)

Q: What about the EC50 [2, 3] of the same compound?
A: 0.122 µM

Q: What about the EC50 [2, 4] of the same compound?
A: 0.627 µM

Q: What about the EC50 [2, 5] of the same compound?
A: 0.494 µM

Q: What about the EC50 [2, 6] of the same compound?
A: 0.333 µM

Q: `CC(NCc1ccccc1)c1cc(Cl)ccc1O` (stereo not drawn) [MMV665789] was tested. Which “Killing Rate” value [1] did it give?
A: PYR (moderate)

Q: What about the EC50 [2, 3] of the same compound?
A: 0.17 µM

Q: What about the EC50 [2, 4] of the same compound?
A: 1 µM

Q: What about the EC50 [2, 5] of the same compound?
A: 1.25 µM

Q: What about the EC50 [2, 6] of the same compound?
A: 1.25 µM

Q: How did the “Killing Rate” value [1] turn out when `FC(F)(F)c1cccc(Nc2nc3ccccc3nc2Nc2cccc(C(F)(F)F)c2)c1` [MMV665794] was run?
A: PYR (moderate)

Q: And the EC50 [2, 3]?
A: 0.318 µM

Q: And the EC50 [2, 4]?
A: 0.164 µM

Q: And the EC50 [2, 5]?
A: 0.103 µM

Q: What does the source list for `O=C(Nc1ccc(Cl)c(Cl)c1)Nc1ccc(Cl)c(Cl)c1` [MMV665852]?
A: Killing Rate [1]: CQ (fast); EC50 [2, 3]: 1.55 µM; EC50 [2, 4]: 1.16 µM; EC50 [2, 5]: 1.24 µM

Q: Which results are given for `OC(CNC1CCCCC1)Cn1c2ccc(I)cc2c2cc(I)ccc21` (stereo not drawn) [MMV665882]?
A: Killing Rate [1]: ATQ (slow); EC50 [2, 3]: 0.023 µM; EC50 [2, 4]: 0.035 µM; EC50 [2, 5]: 0.075 µM; EC50 [2, 6]: 0.158 µM

Q: Which results are given for `O=C(Nc1ccccc1O)c1ccc(Oc2cccc(C(=O)Nc3ccccc3O)c2)cc1` [MMV665888]?
A: Killing Rate [1]: PYR (moderate); EC50 [2, 3]: 0.295 µM; EC50 [2, 4]: 0.614 µM; EC50 [2, 5]: 1.16 µM

Q: Which results are given for `COc1ccc(C(=O)C2CC2c2ccc(Cl)cc2)cc1` (stereo not drawn) [MMV665924]?
A: Killing Rate [1]: CQ (fast); EC50 [2, 3]: 2.46 µM; EC50 [2, 4]: 0.976 µM; EC50 [2, 5]: 0.824 µM; EC50 [2, 6]: 0.487 µM

Q: With `CCC(C)NCC(O)(c1ccc(Cl)cc1)c1ccc(Cl)cc1` (stereo not drawn) [MMV665928] as the compound, how does the “Killing Rate” value [1] read?
A: CQ (fast)

Q: What about the EC50 [2, 3] of the same compound?
A: 0.028 µM

Q: What about the EC50 [2, 4] of the same compound?
A: 0.972 µM

Q: And the EC50 [2, 5]?
A: 0.494 µM

Q: What about the EC50 [2, 6] of the same compound?
A: 1.16 µM

Q: How did the “Killing Rate” value [1] turn out when `O=C(Nc1ccsc1C(=O)NC1CCCCC1)c1ccc(F)cc1` [MMV665939] was run?
A: ATQ (slow)

Q: What about the EC50 [2, 3] of the same compound?
A: 1.22 µM

Q: What about the EC50 [2, 4] of the same compound?
A: 0.726 µM

Q: And the EC50 [2, 5]?
A: 1.04 µM

Q: And the EC50 [2, 6]?
A: 2.1 µM

Q: How did the “Killing Rate” value [1] turn out when `Nc1ccc(-c2nc3cc(Cc4ccc5[nH]c(-c6ccc(N)cc6)nc5c4)ccc3[nH]2)cc1` [MMV665943] was run?
A: CQ (fast)

Q: What about the EC50 [2, 3] of the same compound?
A: 0.034 µM

Q: What about the EC50 [2, 4] of the same compound?
A: 0.369 µM

Q: What about the EC50 [2, 5] of the same compound?
A: 0.316 µM

Q: And the EC50 [2, 6]?
A: 0.198 µM

Q: Which “Killing Rate” value [1] does the source give for `COc1cc(C(=O)ON=C(N)Cc2cccc3ccccc23)cc(OC)c1OC` [MMV666687] here?
A: CQ (fast)

Q: What about the EC50 [2, 3] of the same compound?
A: 1 µM

Q: And the EC50 [2, 4]?
A: 0.89 µM

Q: And the EC50 [2, 5]?
A: 0.351 µM

Q: And the EC50 [2, 6]?
A: 0.294 µM

Q: What does the source list for `c1cc(-c2cnc3ccc(-c4ccc(N5CCOCC5)cc4)nn23)ccn1` [MMV668311]?
A: Killing Rate [1]: CQ (fast); EC50 [2, 3]: 0.014 µM; EC50 [2, 4]: 0.033 µM; EC50 [2, 5]: 0.05 µM; EC50 [2, 6]: 0.018 µM

Q: How did the “Killing Rate” value [1] turn out when `c1cncc(-c2cc(N3CCC(CN4CCOCC4)CC3)nc(-c3ccncc3)n2)c1` [MMV668399] was run?
A: PYR (moderate)

Q: What about the EC50 [2, 3] of the same compound?
A: 0.322 µM

Q: What about the EC50 [2, 4] of the same compound?
A: 0.089 µM

Q: What about the EC50 [2, 5] of the same compound?
A: 0.081 µM

Q: And the EC50 [2, 6]?
A: 0.072 µM

Q: For `COc1ccc2c3c([nH]c2c1)[C@H](CO)N(C(C)=O)CC31CCN(C(=O)Nc2ccccc2F)CC1` [MMV673482], which “Killing Rate” value [1] is on record?
A: PYR (moderate)

Q: And the EC50 [2, 3]?
A: 0.039 µM

Q: And the EC50 [2, 7]?
A: 0.127 µM

Q: What about the EC50 [2, 5] of the same compound?
A: 0.232 µM

Q: What about the EC50 [2, 6] of the same compound?
A: 0.234 µM

Q: With `CN(C)CCCNCc1ccc(-c2ccc(Cl)c(Cl)c2)o1` [MMV673964] as the compound, how does the “Killing Rate” value [1] read?
A: CQ (fast)

Q: And the EC50 [2, 3]?
A: 0.068 µM

Q: And the EC50 [2, 7]?
A: 0.29 µM

Q: And the EC50 [2, 5]?
A: 0.633 µM

Q: And the EC50 [2, 6]?
A: 0.575 µM
